Test results reported in article PMC11280390, “Synthesis of Nitrostyrylthiazolidine-2,4-dione Derivatives Displaying Antileishmanial Potential” (Pharmaceuticals, 2024).
Where two headings read alike, the source gives them in different places.

Tests used:
[1] = tested on: Leishmania infantum promastigotes; test: In vitro antileishmanial activity on L. infantum promastigotes (MTT, 72 h); format: cell-based; settings: read-out: Anti-L. infantum Promastigote Activity EC50
Description: Luciferase-expressing Leishmania infantum was kindly provided by Professor Thierry Lang of the Institut Pasteur. L. infantum promastigotes were routinely grown at 27 °C in Schneider’s Drosophila Medium (Dominique […] SAS, Bernolsheim, France) supplemented with 10% fetal calf serum, 2% human urine, sodium pyruvate 0.04 mM, hemin 0.1 µg/mL, HEPES 5 mM, streptomycin 100 µg/mL, penicillin 100 U/mL, L-glutamine 2 mM (culture medium). The in vitro evaluation of the antileishmanial activity of the tested compound on L. infantum promastigotes forms was assessed according to the Mosmann protocol with slight modifications. […] Appropriate controls treated with DMSO, Miltefosine, Amphotericin B and Fexinidazole sulfone (reference drugs purchased from Sigma-Aldrich, Saint-Louis, MO, USA) were added to each set of experiments. The plates were incubated at 27 °C for 72 h, Then, each plate-well was microscope-analyzed to detect any precipitate formation. Afterward, 20 µL of MTT (3-(4,5-dimethylthiazol-2-yl)-2,5-diphenyltetrazolium bromide) (Sigma-Aldrich, Saint-Louis, MI, USA) solution (5 mg/mL in PBS) were added to each well and incubated at 27 °C for 4 h. The reaction was then stopped by the addition of 100 µL of 10% sodium dodecyl sulfate—50% isopropanol. Plates were shaken vigorously at 400 rpm for 10 min. […] EC50 values represent the mean value calculated from at least three separate experiments.

[2] = In vitro cytotoxicity on the human hepatic HepG2 cell line (MTT, 72 h); settings: human
Description: (§1) HepG2 cell line (hepatocarcinoma cell line purchased from ATCC, ref HB-8065) was maintained at 37 °C, 5% CO2 with 90% humidity in MEM supplemented with 10% fetal bovine serum, 1% L-glutamine (200 mM) and penicillin (100 U/mL)/streptomycin ([…]) (complete MEM medium). The tested molecules’ cytotoxicity was assessed according to the method of Mosmann with slight modifications. Briefly, 5 × 10^3 cells in 100 μL of complete medium were inoculated into each well of 96-well plates and incubated at 37 °C in a humidified 5% CO2. After 24 h incubation, 100 μL of medium with various product concentrations dissolved in DMSO (final concentration less than 0.5% v/v) were added and the plates were incubated for 72 h at 37 °C. Triplicate assays were performed for each sample. Each plate well was then microscope-examined to detect possible precipitate formation before the medium was aspirated from the wells. Then, 100 μL of MTT (3-(4,5-dimethyl-2-thiazolyl)-2,5-diphenyl-2H-tetrazolium bromide) solution (0.5 mg/mL in medium without FCS) were then added to each well. Cells were incubated for 2 h at 37 °C, following which the MTT solution was removed and DMSO (100 μL) was added to dissolve the resulting blue formazan crystals. Plates were shaken vigorously (700 rpm) for 10 min. The absorbance was measured at 570 nm with 630 nm as reference wavelength using a TECAN Infinite F-200 spectrophotometer (Tecan Trading AG, Männedorf, Switzerland). DMSO was used as blank and doxorubicin (purchased from Sigma Aldrich, Saint Louis, MI, USA) as positive control. Cell viability was calculated as a percentage of control (cells incubated without compound). […] CC50 values represent the mean value calculated from three separate experiments.

HepG2 cell line = test: as above; settings: for Selectivity INDEX (SI = CC50/EC50): HepG2 CC50 / L. infantum promastigote EC50; for CC50: read-out: HepG2 Cytotoxicity CC50, HepG2, 72 h, MTT
Description: as §1

[3] = Leishmania infantum, L. infantum promastigotes, MTT
[4] = HepG2 cells (hepatocarcinoma cell line, ATCC HB-8065), HepG2 Cytotoxicity CC50, HepG2, 72 h, MTT

Row | Structure (SMILES) | EC50 [1, 3] | CC50 at 72 h [2, 4] | Selectivity INDEX (SI = CC50/EC50) (HepG2 cell line) | CC50 (HepG2 cell line) | melting point | EC50 ([1]; Leishmania infantum) | CC50 at 72 h [2] | EC50 ([1]; L. infantum promastigotes, MTT)
1 | CCOC(=O)CN1C(=O)S/C(=C\c2ccc([N+](=O)[O-])cc2)C1=O [Compound 12d, Ethyl ((Z)-5-(4-nitrobenzylidene)thiazolidine-2,4-dion-3-yl)acetate] | 11.6 ± 2.37 µM | 101 to 125 µM | >10.8 | > 125 µM | 136 to 138 °C |  |  | 
2 | COc1cc(/C=C2\SC(=O)N(CC(=O)Nc3ccc(Cl)cc3)C2=O)cc(OC)c1OC [Compound 27e, (Z)-N-(4-Chlorophenyl)-2-(5-(3,4,5-trimethoxybenzylidene)thiazolidine-2,4-dion-3-yl)acetamide] | 5 ± 1.98 µM | 19.4 ± 2.05 µM | 3.9 |  | 218 to 219 °C |  |  | 
3 | COc1ccc(NC(=O)CN2C(=O)S/C(=C\c3ccccc3[N+](=O)[O-])C2=O)cc1 [Compound 25b, (Z)-2-(5-(2-Nitrobenzylidene)thiazolidine-2,4-dion-3-yl)-N-(4-methoxyphenyl) acetamide] | 22.3 ± 4.93 µM | 23.3 ± 2.93 µM | 1.1 |  | 204 to 205 °C |  |  | 
4 | O=C(CN1C(=O)S/C(=C\c2cccc([N+](=O)[O-])c2)C1=O)Nc1ccc([N+](=O)[O-])cc1 [Compound 26c, (Z)-2-(5-(3-Nitrobenzylidene)thiazolidine-2,4-dion-3-yl)-N-(4-nitroyphenyl) acetamide] |  |  | >3.5 |  | 264 to 266 °C | 7.2 ± 1.48 µM | > 25 µM | 
5 | CCOC(=O)CN1C(=O)S/C(=C\c2cccc([N+](=O)[O-])c2)C1=O [Compound 12c, Ethyl ((Z)-5-(3-nitrobenzylidene)thiazolidine-2,4-dion-3-yl)acetate] | 5.51 ± 1.29 µM | 101 to 125 µM | >22.7 | > 125 µM |  |  |  | 
6 | CCOC(=O)CN1C(=O)S/C(=C\c2ccccc2[N+](=O)[O-])C1=O [Compound 12b, Ethyl ((Z)-5-(2-nitrobenzylidene)thiazolidine-2,4-dion-3-yl)acetate] | 24.1 ± 5.14 µM | 39.4 ± 7.09 µM | 1.6 |  | 81 to 83 °C |  |  | 
7 | NC(=O)CN1C(=O)S/C(=C\c2cccc([N+](=O)[O-])c2)C1=O [Compound 15c, (Z)-2-(5-(3-Nitrobenzylidene)thiazolidine-2,4-dion-3-yl)acetamide] | 13.3 ± 7.75 µM | > 62.5 µM | >4.7 |  | 256 to 258 °C |  |  | 
8 | O=C(CN1C(=O)S/C(=C\c2ccc([N+](=O)[O-])cc2)C1=O)Nc1ccc(Cl)cc1 [Compound 27d, (Z)-N-(4-Chlorophenyl)-2-(5-(4-nitrobenzylidene)thiazolidine-2,4-dion-3-yl) acetamide] | 17.3 ± 4.17 µM | > 12.5 µM | >0.7 |  | 252 to 254 °C |  |  | 
9 | O=C1NC(=O)/C(=C/c2cccc([N+](=O)[O-])c2)S1 [Compound 4] | 28 ± 7.15 µM | 190 ± 18.6 µM | 6.8 |  |  |  |  | 
10 | Cc1ccc(NC(=O)CN2C(=O)S/C(=C\c3ccccc3[N+](=O)[O-])C2=O)cc1 [Compound 24b, (Z)-N-(4-Methylphenyl)-2-(5-(2-nitrobenzylidene)thiazolidine-2,4-dion-3-yl) acetamide] | 24.8 ± 6.68 µM | 30.9 ± 3.97 µM | 1.2 |  | 181 to 183 °C |  |  | 
11 | O=C1NC(=O)/C(=C/c2ccc([N+](=O)[O-])cc2)S1 [Compound 5] |  | 137.1 ± 1.22 µM | 9.4 |  |  |  |  | 14.6 ± 2.9 µM
12 | O=C(O)CN1C(=O)S/C(=C\c2cccc([N+](=O)[O-])c2)C1=O [Compound 29, (Z)-2-(5-(3-Nitrobenzylidene)thiazolidin-2,4-dion-3-yl)acetic Acid] | > 50 µM | > 250 µM |  |  | 191 to 193 °C |  |  | 
13 | CCOC(=O)CN1C(=O)S/C(=C\c2ccccc2)C1=O [Compound 12a] | 20.6 ± 5.86 µM | 194 ± 8.92 µM | 9.4 |  |  |  |  | 
